Measurements reported in PMC3017600 (Nucleic Acids Research, 2010).
Where no end group is shown, it is not given here. [ ]: non-standard residue; d: D form. pS = N[C@@H](COP(=O)(O)O)C(=O)O

Assays:
[1] = tested on: TopBP1(1–290) double mutants; test: Fluorescence polarization binding, double mutants; parameters: species or system human; conditions: putative binding sites in both BRCT1 and BRCT2 disrupted
TopBP1(1–290) wild-type = TopBP1(1–290) wild-type (Homo sapiens, UniProt Q92547); assay type: binding; conditions: fluorescence polarization; 10 nM fluorescein-labelled peptide; 4°C, 30 min
TopBP1(1–290) [2] = test: Co-precipitation; assay type: binding, human; conditions: Glutathione Sepharose; no Mg-ATP; SDS–PAGE
TopBP1(1–290) [3] = biological target: TopBP1(1–290) (human, UniProt Q92547 1-290); test: fluorescence polarisation
TopBP1(1–290) (human, UniProt Q92547 1-290), sequence (Q92547 1-290): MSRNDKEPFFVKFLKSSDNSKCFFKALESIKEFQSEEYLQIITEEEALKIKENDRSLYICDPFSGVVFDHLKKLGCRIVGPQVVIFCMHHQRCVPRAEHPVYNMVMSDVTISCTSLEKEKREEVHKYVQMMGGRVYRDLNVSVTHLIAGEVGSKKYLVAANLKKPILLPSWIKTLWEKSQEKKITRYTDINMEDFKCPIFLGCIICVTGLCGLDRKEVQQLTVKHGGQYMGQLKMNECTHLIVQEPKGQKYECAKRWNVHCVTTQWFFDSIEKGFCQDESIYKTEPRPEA

TopBP1(1–290) wild-type, sequence (Q92547 1-290): as above

For “fluorescein-GGPSPVLAED[pS]EGEG [Rad9, pS387]”, which “Interaction with TopBP1(1–290) double mutants (in words)” value [1] is on record?
Its value is “no measurable interaction”.

How did the “Binding to wild-type TopBP1(1–290) (in words)” value (TopBP1(1–290) wild-type) turn out when “fluorescein-GGSDTDSH[pS]QDLGSPE [Rad9, pS272]” was run?
The value was “no significant affinity was observed”.

B1: GST-Rad9Tail: GST-fusion with the C-terminus of human Rad9 (amino acids 264–391), expressed in E. coli (protein)
chain: TLSDTDSHSQDLGSPERHQPVPQLQAHSTPHPDDFANDDIDSYMIAMETTIGNEGSRVLPSISLSPGPQPPKSPGPHSEEEDEAEPSTVPGTPPPKKFRSLFFGSILAPVRSPQGPSPVLAEDSEGEG
modifications: left off: GST, N-terminal, kept
With B1 as the molecule, how does the “Co-precipitation of TopBP1(1–290) by GST fusion incubated with CK2α in the absence of Mg-ATP” value (TopBP1(1–290) [2]) read?
The value was “failed to co-precipitate detectable”.

Which Kd (TopBP1(1–290) [3]) does the source give for fluorescein-GGPSPVLAED[pS]EGEG (also: phosphoserine at 387 (Rad9 numbering)) [Rad9, pS387 fluorescein-labelled peptide] here?
The Kd was 2100 nM.
